Test results as given in publication PMC8512560, “Design, Synthesis, and Antipoliferative Activities of Novel Substituted Imidazole-Thione Linked Benzotriazole Derivatives” (Molecules, 2021).
Several values for one entry are separate records, joined by “and”; a condition that tells them apart may be missing. Equal values may be shown once.

Legend:
[1] = test system: colchicine binding site of tubulin; assay: Colchicine site competitive binding assay ([3H]colchicine); conditions: tubulin and colchicine at 1 and 5 µM
Description: The affinity of Benzotriazole compounds to colchicine binding site was determined using a Colchicine Site Competitive Assay kit CytoDYNAMIX Screen15 (Cytoskeleton, Inc., Denver, CO, USA) using the standard protocol of the manufacturer to determine Ki values (μM). Biotin-labelled tubulin ([…]) and the test compounds (positive control colchicine, negative control vinblastine, G-1, fluorescent G-1, or 2-ME) in a 96-well plate (final volume: 100 μL). After incubating for 2 h at 37 °C with gentle shaking, streptavidin-labelled yttrium SPA beads (80 μg in 20 μL reaction buffer, PerkinElmer, Waltham, MA) were added to each well and incubated for 30 min at 4 °C. The plates were then read on a scintillation counter (Packard Instrument, Topcount Microplate Reader) and the percentage of inhibition was calculated.

[2] = test system: HUVEC human umbilical vein endothelial cell line; assay: MTT viability assay, normal HUVEC cells; format: cell-based; conditions: 72 h, mean ± SD of three independent experiments
Description: All the human tumour cell lines MCF-7, HL-60, HCT-116, and HUVEC were cultured in Dulbecco’s Modified Eagle’s Medium (DMEM) with 10% fetal bovine serum, 2 mM L-glutamine and 100 µg/mL penicillin/streptomycin. Cells were maintained at 37 °C in 5% CO2 in a humidified incubator. All cells were sub-cultured three times/week by trypsinization using TrypLE Express (1X).
The Benzotriazole compounds were evaluated for antiproliferative effect using the MTT viability assay of various cancer cell lines (MCF-7, HCT-116 and HL-60) and the normal human umbilical vein endothelial cell line (HUVEC) to calculate the relative IC50 values for each compound. Cells were seeded in triplicate in 96-well plates at a density of 10 × 10^3 cells/mL in a total volume of 200 µL per well. 0.1% of DMSO was used as a vehicle control. After this time, they were treated with 2 µL test compound which had been pre-prepared as stock solutions in ethanol to furnish the concentration range of study, 10 nM to 100 µM, and re-incubated for a further 72 h. The culture medium was then removed, and the cells washed with 100 µL phosphate buffered saline (PBS) and 50 µL MTT added, to reach a final concentration of 1 mg/mL MTT added. Cells were incubated for 2 h in darkness at 37 °C. At this point solubilisation was begun through the addition of […] DMSO and the cells maintained at room temperature in darkness for 20 min to ensure thorough colour diffusion before reading the absorbance. Plates were incubated for 72 h at 37 °C + 5% CO2. The MTT (5 mg/mL in PBS) was added and incubated for another 4 h, and the optical density was detected with a microplate reader at 570 nm. Results were expressed as percentage viability relative to vehicle control (100%). Dose response curves were plotted and IC50 values (concentration of drug resulting in 50% reduction in cell survival) were obtained using the commercial software package Prism (GraphPad Software, Inc., La Jolla, CA, USA). All the experiments were repeated in at least three independent experiments.

bovine brain tubulin = assay: Tubulin polymerization assay (turbidimetric, kit BK006); format: biochemical; conditions: read-out: Anti-Tubulin Activity IC50 ± SD (inhibition of tubulin polymerization)
Description: The assembly of purified bovine tubulin was monitored using a kit, BK006, purchased from Cytoskeleton Inc., (Denver, CO, USA). The assay was carried out in accordance with the manufacturer’s instructions using the standard assay conditions. Briefly, purified ([…]) in a buffer consisting of 80 mM PIPES (pH 6.9), 0.5 mM EGTA, 2 mM MgCl2, 1 mM GTP and 10% glycerol was incubated at 37 °C in the presence of either vehicle (2% (v/v) ddH2O), CA-4, benzotriazole compounds. Light was scattered proportionally to the concentration of polymerized microtubules in the assay. Therefore, the tubulin assembly was monitored turbidimetrically at 340 nm in a Spectramax 340 PC spectrophotometer (Molecular Devices, Sunnyvale, CA, USA). The concentration that inhibits tubulin polymerization by 50% (IC50) was determined using area under the curve (AUC). The AUC of the untreated controls were considered as 100% polymerization. The IC50 value for each compound was computed using GraphPad Prism Software.

PARP = assay: Western blot of PARP cleavage in HL-60 cells; format: cell-based, human; conditions: HL-60, after a 48 h treatment
Description: HL-60 cells were seeded at a density of 1 × 10^5 cells/flask in T25 flasks. After 48 h, whole cell lysates were prepared from untreated cells or cells treated with vehicle control (EtOH, 0.1% v/v) or compound BI9 (0.5 and 1 μM). HL-60 cells were harvested in RIPA buffer supplemented with protease inhibitors (Roche Diagnostics), phosphatase inhibitor cocktail 2 (Sigma-Aldrich), and phosphatase inhibitor cocktail 3 (Sigma-Aldrich). Equal quantities of protein (as determined by a BCA assay) were resolved by SDS-PAGE (12%) followed by transfer to PVDF membranes. Membranes were blocked in 5% bovine serum albumin/TBST for 1 h. Membranes were incubated in the relevant primary antibodies at 4 °C overnight, washed with TBST, and incubated in horseradish peroxidase conjugated secondary antibody for 1 h at rt and washed again. Western blot analysis was performed as described above using antibodies directed against BAX [1:1000] (Cell Signaling Technology), PARP [1:500] (Cell Signaling Technology) and Bcl-2 [1:500] (Cell Signaling Technology) followed by incubation with a horseradish peroxidase-conjugated anti-mouse antibody [1:2000] (Promega, Madison, WI, USA). All blots were probed with β-actin antibody [1:5000] (Sigma) to confirm equal loading. Proteins were detected using enhanced chemiluminescent Western blot detection (Clarity Western ECL substrate) (Bio Rad) on the ChemiDoc MP System (Bio Rad). […]

BAX = assay: Western blot of BAX expression in HL-60 cells; format: cell-based, human; conditions: HL-60, 0.5 and 1 µM, compared to the untreated group
Description: HL-60 cells were seeded at a density of 1 × 10^5 cells/flask in T25 flasks. […] HL-60 cells were harvested in RIPA buffer supplemented with protease inhibitors (Roche Diagnostics), phosphatase inhibitor cocktail 2 (Sigma-Aldrich), and phosphatase inhibitor cocktail 3 (Sigma-Aldrich). Equal quantities of protein (as determined by a BCA assay) were resolved by SDS-PAGE (12%) followed by transfer to PVDF membranes. Membranes were blocked in 5% bovine serum albumin/TBST for 1 h. Membranes were incubated in the relevant primary antibodies at 4 °C overnight, washed with TBST, and incubated in horseradish peroxidase conjugated secondary antibody for 1 h at rt and washed again. Western blot analysis was performed as described above using antibodies directed against BAX [1:1000] (Cell Signaling Technology), PARP [1:500] (Cell Signaling Technology) and Bcl-2 [1:500] (Cell Signaling Technology) followed by incubation with a horseradish peroxidase-conjugated anti-mouse antibody [1:2000] (Promega, Madison, WI, USA). All blots were probed with β-actin antibody [1:5000] (Sigma) to confirm equal loading. Proteins were detected using enhanced chemiluminescent Western blot detection (Clarity Western ECL substrate) (Bio Rad) on the ChemiDoc MP System (Bio Rad). Experiments were performed on three independent occasions.

Colchicine Binding % ± SD (inhibition of [3H]colchicine binding), 1 µM Drug ([1]; 1 µM drug): 49% and 49.38 ± 2%
Colchicine Binding % ± SD (inhibition of [3H]colchicine binding), 5 µM Drug ([1]; 5 µM drug): 66% and 66.57 ± 2%
IC50 (bovine brain tubulin): 520 ± 20 nM
Compound: S=c1[nH]c(-n2nnc3ccccc32)cn1-c1ccc(Cl)cc1Cl [BI9, 4-(1H-Benzo[d][1,2,3]Triazol-1-yl)-1-(2,4-Dichlorophenyl)-1H-Imidazole-2(3H)-Thione]
IC50 [2]: > 100000 nM
PARP cleavage (indicator of apoptosis) (PARP): confirmed
Expression level of pro-apoptotic Bax protein (BAX): significantly up-regulated
